For 25 compounds, GI50 and IC50 results are on record in US12649727B2, “EFGR inhibitor, preparation method therefor and application thereof” (Abbisko Therapeutics Co., Ltd, priority 2020, dated 2026).

SMILES strings stand for the structures.

Format in all cases: cell-based
Assay [1] deals with Ba/F3 EGFR-V769_D770insASV (Homo sapiens, UniProt P00533, DUP767-769, cells depend on it). Kind of assay: Proliferation experiment of Ba/F3 cell line, EGFR-V769_D770insASV (CellTiter-Glo). The conditions noted are these: cultured for 72 hrs with compound, CTG analysis, read-out: Ba/F3 EGFR-V769_D770insASV IC50. The essentials:
(§1)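 […] Ba/F3 cells expressing EGFR insertion mutants treated 72 h at 37 °C with 9 concentrations, 3.16-fold dilutions, top 10 μM, 0.1% DMSO, in triplicate. Viability by CellTiter-Glo luminescence with T0 reference plate; IC50 (nM) from non-linear dose-response fit.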

The target of assay [2] is Ba/F3 EGFR-D770-N771ins_SVD (Homo sapiens, UniProt P00533, DUP768-770, cells depend on it). Kind of assay: Proliferation experiment of Ba/F3 cell line, EGFR-D770-N771ins_SVD (CellTiter-Glo). The conditions noted are these: cultured for 72 hrs with compound, CTG analysis, read-out: Ba/F3 EGFR-D770-N771ins_SVD IC50. The essentials:
as §1

For assay [3], the system named is A431 (EGFR-WT). Put plainly: Proliferation experiment, A431 cell line (CellTiter-Glo). The conditions noted are these: Homo sapiens, A-431; A431 cells, cultured for 72 hrs with compound, CTG analysis.

Sequence of Ba/F3 EGFR-D770-N771ins_SVD (P00533 with tags, fused parts or gaps DUP768-770): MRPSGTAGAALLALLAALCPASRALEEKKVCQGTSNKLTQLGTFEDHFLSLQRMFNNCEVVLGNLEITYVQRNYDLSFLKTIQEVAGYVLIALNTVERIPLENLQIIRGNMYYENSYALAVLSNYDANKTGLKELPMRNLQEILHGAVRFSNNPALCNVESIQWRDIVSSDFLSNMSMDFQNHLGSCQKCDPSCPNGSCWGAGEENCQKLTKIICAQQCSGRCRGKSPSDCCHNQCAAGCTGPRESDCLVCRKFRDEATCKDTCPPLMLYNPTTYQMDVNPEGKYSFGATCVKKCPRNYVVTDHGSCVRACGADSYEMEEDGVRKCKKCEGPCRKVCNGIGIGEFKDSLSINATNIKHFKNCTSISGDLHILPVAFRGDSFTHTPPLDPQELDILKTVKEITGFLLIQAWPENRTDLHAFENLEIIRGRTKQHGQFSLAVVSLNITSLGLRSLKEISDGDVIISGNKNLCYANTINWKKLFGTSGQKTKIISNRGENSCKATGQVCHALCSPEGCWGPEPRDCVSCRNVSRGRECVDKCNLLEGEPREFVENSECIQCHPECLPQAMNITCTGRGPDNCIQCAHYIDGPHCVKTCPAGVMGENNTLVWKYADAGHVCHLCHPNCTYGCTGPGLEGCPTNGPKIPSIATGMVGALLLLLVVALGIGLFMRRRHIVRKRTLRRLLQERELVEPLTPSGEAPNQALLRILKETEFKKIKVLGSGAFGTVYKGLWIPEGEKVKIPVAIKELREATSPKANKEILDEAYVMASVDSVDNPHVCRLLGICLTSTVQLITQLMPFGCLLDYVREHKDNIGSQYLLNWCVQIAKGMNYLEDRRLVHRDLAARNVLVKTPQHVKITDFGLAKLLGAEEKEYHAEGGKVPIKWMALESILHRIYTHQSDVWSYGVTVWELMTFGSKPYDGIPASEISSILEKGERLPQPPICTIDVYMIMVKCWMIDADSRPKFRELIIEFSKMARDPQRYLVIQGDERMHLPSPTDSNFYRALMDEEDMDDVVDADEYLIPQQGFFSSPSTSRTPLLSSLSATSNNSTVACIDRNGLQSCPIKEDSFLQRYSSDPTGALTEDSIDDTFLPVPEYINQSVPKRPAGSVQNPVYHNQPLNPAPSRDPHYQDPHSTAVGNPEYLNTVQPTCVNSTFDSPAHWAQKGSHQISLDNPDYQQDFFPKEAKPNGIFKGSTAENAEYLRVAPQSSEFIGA
Sequence of Ba/F3 EGFR-V769_D770insASV (P00533 with tags, fused parts or gaps DUP767-769): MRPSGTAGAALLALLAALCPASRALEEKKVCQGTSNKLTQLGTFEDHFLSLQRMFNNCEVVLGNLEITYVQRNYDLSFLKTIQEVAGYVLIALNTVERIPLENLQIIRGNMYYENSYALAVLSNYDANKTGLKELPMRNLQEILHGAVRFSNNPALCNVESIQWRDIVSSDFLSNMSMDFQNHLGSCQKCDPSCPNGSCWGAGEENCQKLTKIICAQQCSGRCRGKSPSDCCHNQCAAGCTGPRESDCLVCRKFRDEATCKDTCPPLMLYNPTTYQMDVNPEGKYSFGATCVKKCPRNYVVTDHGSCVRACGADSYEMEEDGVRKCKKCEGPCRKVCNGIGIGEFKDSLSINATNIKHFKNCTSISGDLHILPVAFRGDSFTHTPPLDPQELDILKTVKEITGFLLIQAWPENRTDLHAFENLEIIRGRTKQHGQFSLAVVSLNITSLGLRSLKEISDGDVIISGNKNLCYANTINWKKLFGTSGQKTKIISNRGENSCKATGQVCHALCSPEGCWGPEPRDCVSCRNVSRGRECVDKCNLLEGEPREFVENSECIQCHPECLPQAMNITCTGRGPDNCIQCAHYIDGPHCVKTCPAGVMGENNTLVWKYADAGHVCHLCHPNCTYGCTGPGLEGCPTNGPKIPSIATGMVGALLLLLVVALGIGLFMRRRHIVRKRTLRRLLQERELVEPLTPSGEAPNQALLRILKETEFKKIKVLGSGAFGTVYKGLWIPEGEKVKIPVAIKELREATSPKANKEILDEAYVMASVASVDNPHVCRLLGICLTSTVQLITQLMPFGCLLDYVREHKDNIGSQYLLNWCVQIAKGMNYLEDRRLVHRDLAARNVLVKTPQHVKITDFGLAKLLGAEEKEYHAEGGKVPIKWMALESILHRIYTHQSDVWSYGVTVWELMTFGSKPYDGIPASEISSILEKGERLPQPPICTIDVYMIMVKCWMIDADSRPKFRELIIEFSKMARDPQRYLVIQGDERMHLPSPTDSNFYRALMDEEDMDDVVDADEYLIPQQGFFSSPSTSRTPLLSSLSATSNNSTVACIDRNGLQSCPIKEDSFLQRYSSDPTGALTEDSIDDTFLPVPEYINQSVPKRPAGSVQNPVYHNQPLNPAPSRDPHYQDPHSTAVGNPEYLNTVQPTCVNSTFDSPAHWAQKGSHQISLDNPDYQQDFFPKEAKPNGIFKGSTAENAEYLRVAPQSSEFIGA

As to `C=CC(=O)Nc1cc2c(Nc3ccnc(-c4ccccc4F)c3)ncnc2cc1OCCCN1CCOCC1` [Example 69, N-(4-((2-(2-fluorophenyl)pyridin-4-yl)amino)-7-(3-morpholinopropoxy)quinazolin-6-yl)acrylamide], the GI50 in assay [1] came out at 5 nM; in assay [2], 3.4 nM. Further, the IC50 in assay [3] came to 38.1 nM.

With `C=CC(=O)Nc1cc2c(Nc3ccnc(-c4ccccc4F)c3)ncnc2cc1OCCCN1CCN(C)CC1` [Example 70, N-(4-((2-(2-fluorophenyl)pyridin-4-yl)amino)-7-(3-(4-methylpiperazin-1-yl)propoxy)quinazolin-6-yl)acrylamide], the GI50 in assay [1] worked out at 5 nM; in assay [2], 3.1 nM. In assay [3], the half-inhibitory concentration (IC50) was 81 nM.

Take `C=CC(=O)Nc1cc2c(Nc3ccnc(-c4ccccc4F)c3)ncnc2cc1OCCCN1CCN(CC)CC1` [Example 71, N-(7-(3-(4-ethylpiperazin-1-yl)propoxy)-4-((2-(2-fluorophenyl)pyridin-4-yl)amino)quinazolin-6-yl)acrylamide]: the GI50 in assay [1] amounted to 3.1 nM; in assay [2], 1.9 nM. Also, the IC50 in assay [3] worked out at 9.3 nM.

For `C=CC(=O)Nc1cc2c(Nc3ccnc(-c4c(F)cccc4F)c3)ncnc2cc1OCCCN1CCN(C)CC1` [Example 74, N-(4-((2-(2,6-difluorophenyl)pyridin-4-yl)amino)-7-(3-(4-methylpiperazin-1-yl)propoxy)quinazolin-6-yl)acrylamide], the figures for the GI50 in assay [1] and in assay [2] were 4.4 nM and 3.5 nM, respectively. Also, the IC50 in assay [3] is 136 nM.

For `C=CC(=O)Nc1cc2c(Nc3ccnc(-c4c(F)cccc4F)c3)ncnc2cc1O[C@@H]1CCN(C)C1` [Example 76, (R)-N-(4-((2-(2,6-difluorophenyl)pyridin-4-yl)amino)-7-((1-methylpyrrolidin-3-yl)oxy)quinazolin-6-yl)acrylamide], the GI50 in assay [1] is 6.4 nM; in assay [2], 2.9 nM. The concentration for half-maximal inhibition (IC50) in assay [3] is 73.2 nM.

On to `C=CC(=O)Nc1cc2c(Nc3ccnc(-c4ccc(F)cc4F)c3)ncnc2cc1OCCN1CCOCC1` [Example 77, N-(4-((2-(2,4-difluorophenyl)pyridin-4-yl)amino)-7-(2-morpholinoethoxy)quinazolin-6-yl)acrylamide], for which the results for the GI50 in assay [1] and in assay [2] were 4.4 nM and 1.6 nM, respectively. For the same compound, in assay [3], the IC50 came out at 317 nM.

Regarding `C=CC(=O)Nc1cc2c(Nc3ccnc(-c4ccc(F)cc4F)c3)ncnc2cc1OCCCN1CCOCC1` [Example 78, N-(4-((2-(2,4-difluorophenyl)pyridin-4-yl)amino)-7-(3-morpholinopropoxy)quinazolin-6-yl)acrylamide], the GI50 in assay [1] turned out to be 3.8 nM; in assay [2], 3.2 nM. The concentration for half-maximal inhibition (IC50) in assay [3] came out at 41 nM.

Consider `C=CC(=O)Nc1cc2c(Nc3ccnc(-c4ccc(F)cc4F)c3)ncnc2cc1OCCCN1CCN(C)CC1` [Example 79, N-(4-((2-(2,4-difluorophenyl)pyridin-4-yl)amino)-7-(3-(4-methylpiperazin-1-yl)propoxy)quinazolin-6-yl)acrylamide], for which the GI50 is 6.8 nM in assay [1] and 4.2 nM in assay [2]. Further, in assay [3], the half-inhibitory concentration (IC50) was 32.1 nM.

As for `C=CC(=O)Nc1cc2c(Nc3ccnc(-c4ccc(F)cc4F)c3)ncnc2cc1O[C@@H]1CCN(C)C1` [Example 81, (R)-N-(4-((2-(2,4-difluorophenyl)pyridin-4-yl)amino)-7-((1-methylpyrrolidin-3-yl)oxy)quinazolin-6-yl)acrylamide], the values for the GI50 in assay [1] and in assay [2] were 5.2 nM and 3.1 nM, respectively. The half-inhibitory concentration (IC50) in assay [3] is 122 nM.

Regarding `C=CC(=O)Nc1cc2c(Nc3ccnc(-c4ccccc4F)c3)ncnc2cc1OC` [Example 82, N-(4-((2-(2-fluorophenyl)pyridin-4-yl)amino)-7-methoxyquinazolin-6-yl)acrylamide], the results for the GI50 in assay [1] and in assay [2] were 2.6 nM and 1.7 nM, respectively. Besides, the IC50 in assay [3] was determined as 624 nM.

Take `C=CC(=O)Nc1cc2c(Nc3ccnc(-c4ccccc4F)c3)ncnc2cc1OCC` [Example 83, N-(4-((2-(2-fluorophenyl)pyridin-4-yl)amino)-7-ethoxyquinazolin-6-yl)acrylamide]: the GI50 came out at 7.5 nM in assay [1] and 3.3 nM in assay [2]. In addition, in assay [3], the IC50 is 820 nM.

For `C=C(F)C(=O)Nc1cc2c(Nc3ccnc(-c4ccccc4F)c3)ncnc2cc1OC` [Example 86, 2-fluoro-N-(4-((2-(2-fluorophenyl)pyridin-4-yl)amino)-7-methoxyquinazolin-6-yl)acrylamide], the GI50 worked out at 5.1 nM in assay [1] and 3.3 nM in assay [2]. Moreover, the half-maximal inhibitory concentration (IC50) in assay [3] amounted to 316 nM.

As for `C=C(F)C(=O)Nc1cc2c(Nc3ccnc(-c4ccccc4F)c3)ncnc2cc1OCC` [Example 87, 2-fluoro-N-(4-((2-(2-fluorophenyl)pyridin-4-yl)amino)-7-ethoxyquinazolin-6-yl)acrylamide], the GI50 was determined as 10.7 nM in assay [1] and 4.1 nM in assay [2]. For the same compound, the half-inhibitory concentration (IC50) in assay [3] stood at 487 nM.

For the compound `C=C(F)C(=O)Nc1cc2c(Nc3ccnc(-c4ccccc4F)c3)ncnc2cc1OCC(F)(F)F` [Example 88, 2-fluoro-N-(4-((2-(2-fluorophenyl)pyridin-4-yl)amino)-7-(2,2,2-trifluoroethoxy)quinazolin-6-yl)acrylamide], the GI50 in assay [1] was determined as 25.5 nM; in assay [2], 10.1 nM. For the same compound, the IC50 in assay [3] came out at 687 nM.

For the compound `C=C(F)C(=O)Nc1cc2c(Nc3ccnc(-c4ccccc4F)c3)ncnc2cc1OC1CC1` [Example 90, N-(7-cyclopropoxy-4-((2-(2-fluorophenyl)pyridin-4-yl)amino)quinazolin-6-yl)-2-fluoroacrylamide], the GI50 in assay [1] came to 35.8 nM; in assay [2], 11.9 nM. For the same compound, the IC50 in assay [3] was 461 nM.

As for `C=C(F)C(=O)Nc1cc2c(Nc3ccnc(-c4ccccc4F)c3)ncnc2cc1OCC1CC1` [Example 91, N-(7-(cyclopropylmethoxy)-4-((2-(2-fluorophenyl)pyridin-4-yl)amino)quinazolin-6-yl)-2-fluoroacrylamide], the figures for the GI50 in assay [1] and in assay [2] were 32.7 nM and 12.7 nM, respectively. Besides, the 50% inhibitory concentration (IC50) in assay [3] stood at 655 nM.

In the case of `C=CC(=O)Nc1cc2c(Nc3ccnc(-c4ccccc4F)c3)ncnc2cc1F` [Example 92, N-(7-fluoro-4-((2-(2-fluorophenyl)pyridin-4-yl)amino)quinazolin-6-yl)acrylamide], the GI50 in assay [1] was determined as 16.7 nM; in assay [2], 30.5 nM. Besides, in assay [3], the IC50 was 355 nM.

Turning to `C=C(F)C(=O)Nc1cc2c(Nc3ccnc(-c4ccccc4F)c3)ncnc2cc1F` [Example 93, 2-fluoro-N-(7-fluoro-4-((2-(2-fluorophenyl)pyridin-4-yl)amino)quinazolin-6-yl)acrylamide], the GI50 in assay [1] was found to be 51.1 nM; in assay [2], 14.5 nM. Further, in assay [3], the IC50 worked out at 877 nM.

In the case of `C=CC(=O)Nc1cc2c(Nc3ccnc(-c4ccccc4F)c3)ncnc2cc1N1CCOCC1` [Example 94, N-(4-((2-(2-fluorophenyl)pyridin-4-yl)amino)-7-morpholinoquinazolin-6-yl)acrylamide], the GI50 in assay [1] came to 1.9 nM; in assay [2] it was 1.4 nM. Also, the concentration for half-maximal inhibition (IC50) in assay [3] is 2330 nM.

Take `C=C(F)C(=O)Nc1cc2c(Nc3ccnc(-c4ccccc4F)c3)ncnc2cc1N1CCOCC1` [Example 95, 2-fluoro-N-(4-((2-(2-fluorophenyl)pyridin-4-yl)amino)-7-morpholinoquinazolin-6-yl)acrylamide]: the values for the GI50 in assay [1] and in assay [2] were 8.3 nM and 3.3 nM, respectively. For the same compound, the IC50 in assay [3] turned out to be 1820 nM.

For `C=CC(=O)Nc1cc2c(Nc3ccnc(-c4ccccc4F)c3)ncnc2cc1N1CCC(N2CCOCC2)CC1` [Example 98, N-(4-((2-(2-fluorophenyl)pyridin-4-yl)amino)-7-(4-morpholinopiperidin-1-yl)quinazolin-6-yl)acrylamide], the GI50 in assay [1] came to 6.3 nM; in assay [2] it was 2 nM. In assay [3], the IC50 was determined as 1530 nM.

Take `C=CC(=O)Nc1cc2c(Nc3ccnc(-c4ccccc4F)c3)ncnc2cc1N1CCC(N2CCN(C)CC2)CC1` [Example 99, N-(4-((2-(2-fluorophenyl)pyridin-4-yl)amino)-7-(4-(4-methylpiperazin-1-yl)piperidin-1-yl)quinazolin-6-yl)acrylamide]: the GI50 amounted to 6.1 nM in assay [1] and 2.8 nM in assay [2]. For the same compound, in assay [3], the half-maximal inhibitory concentration (IC50) came to 315 nM.

In the case of `C=C(F)C(=O)Nc1cc2c(Nc3ccnc(-c4ccccc4F)c3)ncnc2cc1N1CCC(O)CC1` [Example 100, 2-fluoro-N-(4-((2-(2-fluorophenyl)pyridin-4-yl)amino)-7-(4-hydroxypiperidin-1-yl)quinazolin-6-yl)acrylamide], the GI50 in assay [1] is 14.8 nM; in assay [2] it was 4.4 nM. Also, the half-maximal inhibitory concentration (IC50) in assay [3] is 225 nM.

As to `C=C(F)C(=O)Nc1cc2c(Nc3ccnc(-c4ccccc4F)c3)ncnc2cc1N1CCC(N2CCOCC2)CC1` [Example 102, 2-fluoro-N-(4-((2-(2-fluorophenyl)pyridin-4-yl)amino)-7-(4-morpholinopiperidin-1-yl)quinazolin-6-yl)acrylamide], the GI50 in assay [1] was determined as 17 nM; in assay [2], 6.1 nM. The IC50 in assay [3] came out at 733 nM.

As for `C=C(F)C(=O)Nc1cc2c(Nc3ccnc(-c4ccccc4F)c3)ncnc2cc1N1CCC(N2CCN(C)CC2)CC1` [Example 103, 2-fluoro-N-(4-((2-(2-fluorophenyl)pyridin-4-yl)amino)-7-(4-(4-methylpiperazin-1-yl)piperidin-1-yl)quinazolin-6-yl)acrylamide], the GI50 was 6.1 nM in assay [1] and 30 nM in assay [2]. In addition, in assay [3], the IC50 worked out at 15 nM.
